Data taken from patent publication US10597378B2 (priority 2017, dated 2020).

Key:
myc-tagged human MOR = target: T1, myc-tagged human MOR (Homo sapiens, UniProt P35372); assay: cell-based
T1 construct: myc; host or cells: mouse pituitary AtT-20 cells

human NOP receptor = target: T2, human NOP receptor (Homo sapiens, UniProt P41146); assay: cAMP assay in CHO-K1 cells expressing human NOP (CHO-K1-NOP); format: cell-based; details: read-out: EC50 in decreasing the cAMP level
T2 construct: expressed in transfected cells; host or cells: CHO-K1 (CHO-K1-NOP)
T2 sequence (P41146 whole entry): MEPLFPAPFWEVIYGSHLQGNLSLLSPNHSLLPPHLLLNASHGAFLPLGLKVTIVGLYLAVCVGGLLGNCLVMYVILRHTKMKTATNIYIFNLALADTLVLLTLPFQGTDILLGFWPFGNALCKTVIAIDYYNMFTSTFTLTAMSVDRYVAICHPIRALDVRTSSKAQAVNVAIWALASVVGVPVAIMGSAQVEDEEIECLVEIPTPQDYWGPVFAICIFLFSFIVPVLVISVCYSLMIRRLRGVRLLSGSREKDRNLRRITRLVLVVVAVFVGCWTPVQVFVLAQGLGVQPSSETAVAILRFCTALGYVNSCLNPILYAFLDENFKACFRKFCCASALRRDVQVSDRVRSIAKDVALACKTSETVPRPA
Description: In an exemplary in vitro assay for identifying NOP agonists, cells are engineered to overexpress NOP and are designed to detect changes in intracellular cAMP levels in response to agonist stimulation of the receptor. The enzyme donor-cAMP complex complements with the acceptor and forms an active enzyme. The active enzyme subsequently hydrolyzes a substrate to produce a chemiluminescent signal that is directly proportional to the amount of cAMP in the cells. These cells have thus been modified to work in an agonist mode.
Cells (72,000 per well) were plated in 100 μl/well of DMEM in 96-well solid-bottom white plates (GIBCO) and 50 μl/well of drug in HBSS in the presence of forskolin and 3-isobutyl-1-methylxanthine at final concentrations of 1 μM and 500 μM, respectively. After 30 min of incubation at room temperature, the concentration of cyclic adenosine monophosphate was determined using a LANCE Ultra cAMP Assay kit (PerkinElmer).
It was measured using the PathHunter enzyme complementation assay in CHO-K1 cells expressing human NOP (CHO-K1-NOP).

[1] = test system: wild-type C57BL/6 (B6) mice; assay: Tail flick test (acute thermal pain); format: in vivo, mouse
B6 mice [2] = assay: Tail-clip test (mechanical pain); format: in vivo, mouse; details: wildtype B6 mice
Procedure: Each B6 mouse was placed in an acrylic box (10 cm in diameter, 30 cm high) and allowed to acclimate for 5 min before testing, and then a clip was applied 1-cm from the base of the tail. The latency to bite or grasp the clip was measured during the clip was applied to the tail. […] Regardless of the response to 20 s, a cut off time was set to avoid tissue damage.

mice [3] = assay: Tolerance and cross-tolerance, tail-flick test after 5 days twice-daily treatment; format: in vivo, mouse; details: day 6, equianalgesic dose
[4] = Charcoal meal test (gastrointestinal transit); details: B6, mouse, in vivo, sc
Procedure: (§1) B6 mice were fasted for at least 16 h before the study with free access to water. In a charcoal meal test, various doses of drugs were administered to the mice 30 min prior to the administration of an aqueous activated charcoal suspension (10% activated charcoal+5% gum Arabic; 0.3 mL). After 30 min, the mice were euthanized by intraperitoneal administration of a ketamine/xylazine cocktail (Sigma) followed by cervical dislocation and the total length of migration of the charcoal meal was measured from the pylorus to the ileocecal junction of the small intestine. The length of the intestine from pylorus to the caecum and the distance traveled by the charcoal were measured. The migration index was expressed as percentage of the distance traveled by the peristaltic charcoal meal relative to the total length of the small intestine, calculated according to the following formula. % of Gastrointestinal transit=Distance Travelled by Charcoal Meal/Full Length of the Small Intestine×100%
(§2) Gastrointestinal propulsion was calculated as the percentage of the distance travelled by the charcoal meal relative to the total length of the small intestine, to control for individual variations. The percentage inhibition relative to the control was also calculated as: % Gastrointestinal Inhibition (GI)=(Control group−Drug-treated group)/Control group×100% […]

B6 mice [5] = assay: Charcoal meal test (gastrointestinal transit); details: equianalgesic doses
Procedure: as §1, §2

[6] = test system: melanoma cell-implanted B6 mice; assay: Cancer-induced pain (B16-F1 melanoma), mechanical allodynia (Von Frey test); format: in vivo, mouse
Procedure: To induce neuropathic pain, each B6 mouse was intraperitoneally injected with either oxaliplatin (3.0 mg/kg), or vehicle (saline) after habituation to the test environment and baseline measurements of pain sensitivity. […] To induce cancer pain, each B6 mouse was injected with either 20 μL phosphate-buffered saline or cells (6×10^5 cells/20 μL phosphate-buffered saline) in the footpad of the right hind paw under isoflurane anesthesia on post-inoculation day 0. […] […] The tests were initiated with 0.5 g force. Briefly, whenever a withdrawal response occurred, the next weaker von Frey filament was applied. On the other hand, whenever no withdrawal response occurred, the next stronger filament was applied. Mechanical allodynia was defined as changes in the amount of pressure to induce the hind paw withdrawal.
The cold allodynia was tested using acetone drop test and mechanical allodynia was measured using the Von Frey test to examine the antinociceptive effects of each drug treatment.

MOR [7] = target: T3, MOR (Homo sapiens, UniProt P35372); format: cell-based; parameters: host or cells: CHO-K1 (CHO-K1-MOR)
T3 sequence (P35372 whole entry): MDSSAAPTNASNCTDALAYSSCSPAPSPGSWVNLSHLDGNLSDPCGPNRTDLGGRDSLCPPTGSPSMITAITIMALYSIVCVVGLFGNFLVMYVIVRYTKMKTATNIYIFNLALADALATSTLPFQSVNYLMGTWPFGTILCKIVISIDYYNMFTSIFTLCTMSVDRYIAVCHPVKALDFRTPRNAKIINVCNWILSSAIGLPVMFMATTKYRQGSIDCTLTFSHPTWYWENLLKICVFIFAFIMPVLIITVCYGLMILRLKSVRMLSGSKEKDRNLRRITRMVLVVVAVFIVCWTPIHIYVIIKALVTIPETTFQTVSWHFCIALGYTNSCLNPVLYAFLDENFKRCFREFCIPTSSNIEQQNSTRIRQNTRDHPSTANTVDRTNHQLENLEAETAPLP

B6 mice [8] = assay: Cardiovascular function test (tail cuff plethysmography); details: acute, equi-antinociceptive doses
MOR [9] = target: T3, MOR; assay: cell-based; parameters: expressed in transfected cells; host or cells: CHO-K1/MOR/Ga15 cells; details: read-out: FLIPR Ca2+ EC50
Procedure: In an exemplary in vitro assay for identifying MOR agonists, cells that express a MOR are treated with a test compound in a cellular calcium fluorescent assay and calcium fluorescence intensity is then measured to determine whether the MOR is activated. A test compound is identified as a MOR agonist if the MOR is activated.
EC50 herein refers to the concentration of a compound that induces a response halfway between the baseline and the maximum after a specified exposure time. AUC refers to the area under the response curve, an indication of the compound's capability of activating a MOR.
One day before the assay, CORNING® black with clear flat bottom 96-well assay plates were coated with a 0.1 mg/mL Poly-L-Lysine solution. CHO-K1/MOR/Ga15 cells were suspended in the F12 medium and plated at a density of about 8×10^4 cells/well in […] medium. Cells were incubated in a humidified atmosphere of 10% CO2 at 37° C. overnight so as to reach an 80-90% confluent cell monolayer before the assay. On the day of the assay, 150 μL medium/well was removed from plate. […] Compounds and other reagents were dissolved in the assay buffer. […] The [Ca^2+]i fluorescence was measured up to 90 s after agonist injection.

mice [10] = assay: Conditioned place preference (CPP) test, reinstatement of morphine CPP; details: challenge on reinstatement day (Day 21)

T1 sequence (P35372 whole entry): as above

CN1CCc2ccccc2C1CNC(=O)c1ccc(Cl)c(Cl)c1 (stereo not shown) [Compound 67, 3,4-Dichloro-N-[(2-methyl-1,2,3,4-tetrahydro-1-isoquinolinyl)methyl]benzamide]
EC50 (myc-tagged human MOR): 59.9 nM
Emax of membrane potential hyperpolarization (myc-tagged human MOR): slightly higher than that of morphine
EC50 (human NOP receptor): 2.2 nM
ED50 ([1]; Mus musculus, sc, single subcutaneous injection, read-out: ED50 of antinociception): 0.78 mg/kg
time at which analgesic effects were exerted after acute injection ([1]; equi-antinociceptive doses, B6 mice): 10 min
antinociception (% of MPE, AUC) ([1]; single dose subcutaneous injection, 30-120 min): produced equi-antinociceptive effects at doses of 0.6-1.8 mg/kg
antinociception of mechanical pain (B6 mice [2]): higher antinociceptive effect with mechanical stimuli than morphine
antinociceptive effects on challenge in morphine-tolerant mice (mice [3]): significant increase in antinociceptive effects
ED50 at 60 min [4]: 1.6 mg/kg
gastrointestinal dysfunction (B6 mice [5]): less gastrointestinal dysfunction than morphine
antinociceptive effect after twice daily injection ([6]; 30 min on PID 21 and PID 23): more than that of morphine
withdrawal threshold ([6]; PID19, 30 min after treatment, equi-antinociceptive doses): greater than that of morphine
MOR internalization (MOR [7]): approximately two-fold that of the maximal responses of morphine
cardiovascular function (B6 mice [8]): minimal effect on cardiovascular function
EC50 (MOR [9]): 10 nM
reinstatement of morphine CPP (mice [10]): not Compound 67
